Where a name gives a salt, the structure may show the parent alone. Non-standard residues stand in square brackets, D forms with d. Residues, ends and D or L forms follow the SMILES beside them. *: point of attachment. Cha = N[C@@H](CC1CCCCC1)C(=O)O; pNA = O=[N+]([O-])c1ccc(N*)cc1; Phg = N[C@H](C(=O)O)c1ccccc1; Tos = Cc1ccc(S(=O)(=O)*)cc1; 4Abz = Nc1ccc(C(=O)O)cc1; βNA = c1ccc2cc(N*)ccc2c1; Cbz = O=C(OCc1ccccc1)*; Bz = O=C(c1ccccc1)*; Ahx = NCCCCCC(=O)O
How the values were obtained:
Type in all cases: biochemical
[1] = biological target: plasma kallikrein (Homo sapiens, UniProt P03952); assay: Activity of plasma kallikrein measured with the substrates at constant substrate and enzyme concentrations; conditions: split product
Sequence of plasma kallikrein (P03952 391-638 limits assumed, species assumed): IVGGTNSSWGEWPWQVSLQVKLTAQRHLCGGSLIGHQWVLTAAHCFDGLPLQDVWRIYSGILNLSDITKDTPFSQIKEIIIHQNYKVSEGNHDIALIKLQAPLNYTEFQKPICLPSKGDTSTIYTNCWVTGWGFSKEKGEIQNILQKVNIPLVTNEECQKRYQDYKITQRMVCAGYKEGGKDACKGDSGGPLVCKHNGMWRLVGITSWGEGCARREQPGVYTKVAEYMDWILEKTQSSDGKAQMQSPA
Sequence of plasma kallikrein (P03952 20-390 partner limits assumed, species assumed): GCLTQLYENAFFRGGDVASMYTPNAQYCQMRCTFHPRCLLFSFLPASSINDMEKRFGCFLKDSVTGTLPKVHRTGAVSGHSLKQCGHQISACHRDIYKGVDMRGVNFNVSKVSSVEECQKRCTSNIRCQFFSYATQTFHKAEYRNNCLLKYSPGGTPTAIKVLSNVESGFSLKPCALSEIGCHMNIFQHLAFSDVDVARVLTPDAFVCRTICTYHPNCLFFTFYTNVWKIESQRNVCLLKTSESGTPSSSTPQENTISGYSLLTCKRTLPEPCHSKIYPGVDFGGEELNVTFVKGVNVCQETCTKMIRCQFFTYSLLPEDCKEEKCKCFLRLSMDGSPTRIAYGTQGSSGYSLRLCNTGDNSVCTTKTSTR
Experimental: (§1) HCl, were used for the quantitative determination of various enzymes in blood plasma. The determination was carried out by taking advantage of the fact that the split product NH2 -R^2 formed by enzymatic hydrolysis of the substrate has a UV spectrum which differs from that of the substrate and is shifted toward higher wave lengths. Thus, N^α-Bz-Pro-Phe-Arg-pNA^.
(§2) The degree of the enzymatic hydrolysis of the substrate, which is proportional to the quantity of p-nitroaniline formed, can be easily determined by spectrophotometric measurement at 405 nm. […] The conditions are practically the same for the other substrates carrying a p-nitroanilino group as a chromogenic group. The spectrophotometric measurement was, therefore, carried out in all cases at 405 nm.

[2] = biological target: plasmin (Homo sapiens, UniProt P00747); assay: Activity of human plasmin measured with the substrates at constant substrate and enzyme concentrations; conditions: split product
Sequence of plasmin (P00747 581-810 limits assumed): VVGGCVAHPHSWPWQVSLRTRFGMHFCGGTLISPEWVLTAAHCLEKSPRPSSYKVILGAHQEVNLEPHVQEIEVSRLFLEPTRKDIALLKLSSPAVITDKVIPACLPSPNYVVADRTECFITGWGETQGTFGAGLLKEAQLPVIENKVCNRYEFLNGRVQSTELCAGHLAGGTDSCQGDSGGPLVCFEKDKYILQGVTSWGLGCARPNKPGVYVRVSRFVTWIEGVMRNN
Sequence of plasmin (P00747 97-580 partner limits assumed): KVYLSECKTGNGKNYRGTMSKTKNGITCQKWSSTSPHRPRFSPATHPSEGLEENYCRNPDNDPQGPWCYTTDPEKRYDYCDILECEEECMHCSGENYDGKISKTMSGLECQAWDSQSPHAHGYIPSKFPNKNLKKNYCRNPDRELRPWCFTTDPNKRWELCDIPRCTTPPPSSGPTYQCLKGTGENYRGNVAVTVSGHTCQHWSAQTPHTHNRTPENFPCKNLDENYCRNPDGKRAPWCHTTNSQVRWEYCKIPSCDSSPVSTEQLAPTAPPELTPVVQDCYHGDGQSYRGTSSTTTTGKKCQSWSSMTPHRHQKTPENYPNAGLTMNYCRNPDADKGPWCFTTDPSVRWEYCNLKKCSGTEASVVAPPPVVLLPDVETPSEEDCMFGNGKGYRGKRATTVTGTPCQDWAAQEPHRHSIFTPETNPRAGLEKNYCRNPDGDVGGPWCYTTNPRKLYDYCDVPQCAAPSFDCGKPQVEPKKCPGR
Experimental: as §1, §2

[3] = biological target: T1, trypsin (Bos taurus, UniProt P00760); assay: Splitting by trypsin with liberation of pNA
T1 sequence (P00760 24-246): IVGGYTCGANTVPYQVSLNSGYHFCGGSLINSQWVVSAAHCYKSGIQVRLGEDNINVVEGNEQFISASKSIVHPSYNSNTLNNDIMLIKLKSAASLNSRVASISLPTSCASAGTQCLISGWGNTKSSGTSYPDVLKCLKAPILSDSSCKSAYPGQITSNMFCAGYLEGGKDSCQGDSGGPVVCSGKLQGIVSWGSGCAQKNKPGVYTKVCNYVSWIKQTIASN
Experimental: In a 250 ml three-necked flask 16.0 g (47 mmoles) of Cbo-Arg-OH.HCl, dried over P2 O5 in vacuo, were dissolved in 90 ml of absolute HMPTA in a moisture-free atmosphere at 20° C. To the resulting solution there was first added portionwise a solution of 4.74 g (47 mmoles) of Et3 N in 10 ml of HMPTA and then 16.4 g (100 mmoles) of p-nitrophenylisocyanate (100% excess) at room temperature. The reaction mixture was kept at room temperature for 24 hours, whereupon most of the HMPTA was distilled off in vacuo. The residue was extracted several times with 30% AcOH. The residue was discarded. The combined AcOH extracts were further purified by gel filtration on a "Sephadex G-15" column as described in Example 1, paragraph I (e). […] Elementary analysis and calculation from the empirical formula C20 H25 N6 O5 Cl gave the following values: C = 51.29% (51.67%); H = 5.48% (5.42%); N = 17.92% (18.08%); Cl = 7.50% (7.63%).

In the case of `N=C(N)NCCC[C@H](NC(=O)[C@H](Cc1ccccc1)NC(=O)[C@@H]1CCCN1)C(=O)Nc1ccc([N+](=O)[O-])cc1` [Substrate II, H-Pro-Phe-Arg-pNA.2HCl] (H-Pro-Phe-Arg-pNA), the “Quantity of p-nitroaniline (pNA), β-naphthylamine (2-NA) or 4-methoxy-β-naphthylamine (4-MeO-2-NA) released within 1 minute by 1 BAEE unit of plasma kallikrein” value [1] is reported as 28.6 nm and the “Quantity of p-nitroaniline (pNA), β-naphthylamine (2-NA) or 4-methoxy-β-naphthylamine (4-MeO-2-NA) released within 1 minute by one C unit of human plasmin” value (“Quantity of p-nitroaniline … of human plasmin” for short) [2] is reported as 16.2 nm.
`CC(=O)N1CCC[C@H]1C(=O)N[C@@H](Cc1ccccc1)C(=O)N[C@@H](CCCNC(=N)N)C(=O)Nc1ccc([N+](=O)[O-])cc1` [Substrate III, N^α -Ac-Pro-Phe-Arg-pNA.HCl] (Ac-Pro-Phe-Arg-pNA) was tested, and the “Quantity of p-nitroaniline (pNA), β-naphthylamine (2-NA) or 4-methoxy-β-naphthylamine (4-MeO-2-NA) released within 1 minute by 1 BAEE unit of plasma kallikrein” value [1] was 42.3 nm and the “Quantity of p-nitroaniline … of human plasmin” value [2] was 49.1 nm.
For `N=C(N)NCCC[C@H](NC(=O)[C@H](Cc1ccccc1)NC(=O)[C@@H]1CCCN1C(=O)C1CCCCC1)C(=O)Nc1ccc([N+](=O)[O-])cc1` [Substrate V, N^α -cyclohexylcarbonyl-Pro-Phe-Arg-pNA.HCl], the “Quantity of p-nitroaniline (pNA), β-naphthylamine (2-NA) or 4-methoxy-β-naphthylamine (4-MeO-2-NA) released within 1 minute by 1 BAEE unit of plasma kallikrein” value [1] was 154.7 nm and the “Quantity of p-nitroaniline … of human plasmin” value [2] was 158.0 nm.
`Cc1ccc(C(=O)N2CCC[C@H]2C(=O)N[C@@H](Cc2ccccc2)C(=O)N[C@@H](CCCNC(=N)N)C(=O)Nc2ccc([N+](=O)[O-])cc2)cc1` [Substrate VI, N^α -4-Methyl-Bz-Pro-Phe-Arg-pNA.HCl] was tested, and the “Quantity of p-nitroaniline (pNA), β-naphthylamine (2-NA) or 4-methoxy-β-naphthylamine (4-MeO-2-NA) released within 1 minute by 1 BAEE unit of plasma kallikrein” value [1] was 78.4 nm and the “Quantity of p-nitroaniline … of human plasmin” value [2] was 142.0 nm.
For `N=C(N)NCCC[C@H](NC(=O)[C@H](Cc1ccccc1)NC(=O)[C@@H]1CCCN1C(=O)CCCCCN)C(=O)Nc1ccc([N+](=O)[O-])cc1` [Substrate VIII, N^α -(ω-Aminocaproyl)-Pro-Phe-Arg-pNA.2HCl] (H-[Ahx]PFR-pNA), the “Quantity of p-nitroaniline (pNA), β-naphthylamine (2-NA) or 4-methoxy-β-naphthylamine (4-MeO-2-NA) released within 1 minute by 1 BAEE unit of plasma kallikrein” value [1] was 59.7 nm and the “Quantity of p-nitroaniline … of human plasmin” value [2] was 256.0 nm.
For `Cc1ccc(S(=O)(=O)N2CCC[C@H]2C(=O)N[C@@H](Cc2ccccc2)C(=O)N[C@@H](CCCNC(=N)N)C(=O)Nc2ccc([N+](=O)[O-])cc2)cc1` [Substrate X, N^α-Tos-Pro-Phe-Arg-pNA.HCl] (Tos-Pro-Phe-Arg-pNA), the “Quantity of p-nitroaniline (pNA), β-naphthylamine (2-NA) or 4-methoxy-β-naphthylamine (4-MeO-2-NA) released within 1 minute by 1 BAEE unit of plasma kallikrein” value [1] was 88.5 nm and the “Quantity of p-nitroaniline … of human plasmin” value [2] was 80.2 nm.
In the case of `N=C(N)NCCC[C@H](NC(=O)[C@H](Cc1ccccc1)NC(=O)[C@@H]1CCCN1C(=O)Cc1ccc(N)cc1)C(=O)Nc1ccc([N+](=O)[O-])cc1` [Substrate XI, N^α-4-Aminophenyl-acetyl-Pro-Phe-Arg-pNA. 2HCl], the “Quantity of p-nitroaniline (pNA), β-naphthylamine (2-NA) or 4-methoxy-β-naphthylamine (4-MeO-2-NA) released within 1 minute by 1 BAEE unit of plasma kallikrein” value [1] is reported as 72.1 nm and the “Quantity of p-nitroaniline … of human plasmin” value [2] is reported as 230.0 nm.
With `N=C(N)NCCC[C@H](NC(=O)[C@H](Cc1ccccc1)NC(=O)[C@@H]1CCCN1C(=O)c1ccc(N)cc1)C(=O)Nc1ccc([N+](=O)[O-])cc1` [Substrate XII, N^α-4-Aminobenzoyl-Pro-Phe-Arg-pNA. 2HCl] (H-[4Abz]PFR-pNA) the “Quantity of p-nitroaniline (pNA), β-naphthylamine (2-NA) or 4-methoxy-β-naphthylamine (4-MeO-2-NA) released within 1 minute by 1 BAEE unit of plasma kallikrein” value [1] was 49.2 nm and the “Quantity of p-nitroaniline … of human plasmin” value [2] was 196.0 nm.
For `N=C(N)NCCC[C@H](NC(=O)[C@H](Cc1ccccc1)NC(=O)[C@@H]1CCCN1C(=O)OCc1ccccc1)C(=O)Nc1ccc([N+](=O)[O-])cc1` [Substrate XIII, N^α-Cbo-Pro-Phe-Arg-pNA.HCl] (Cbz-Pro-Phe-Arg-pNA), the “Quantity of p-nitroaniline (pNA), β-naphthylamine (2-NA) or 4-methoxy-β-naphthylamine (4-MeO-2-NA) released within 1 minute by 1 BAEE unit of plasma kallikrein” value [1] was 109.9 nm and the “Quantity of p-nitroaniline … of human plasmin” value [2] was 176.1 nm.
For `N=C(N)NCCC[C@H](NC(=O)[C@H](CC1CCCCC1)NC(=O)[C@@H]1CCCN1C(=O)c1ccccc1)C(=O)Nc1ccc([N+](=O)[O-])cc1` [Substrate XIV, N^α-Bz-Pro-CHA-Arg-pNA.HCl] (Bz-Pro-[Cha]-Arg-pNA), the “Quantity of p-nitroaniline (pNA), β-naphthylamine (2-NA) or 4-methoxy-β-naphthylamine (4-MeO-2-NA) released within 1 minute by 1 BAEE unit of plasma kallikrein” value [1] was 64.5 nm and the “Quantity of p-nitroaniline … of human plasmin” value [2] was 116.0 nm.
For `N=C(N)NCCC[C@H](NC(=O)[C@H](Cc1ccc(O)cc1)NC(=O)[C@@H]1CCCN1C(=O)c1ccccc1)C(=O)Nc1ccc([N+](=O)[O-])cc1` [Substrate XV, N^α-Bz-Pro-Tyr-Arg-pNA.HCl] (Bz-Pro-Tyr-Arg-pNA), the “Quantity of p-nitroaniline (pNA), β-naphthylamine (2-NA) or 4-methoxy-β-naphthylamine (4-MeO-2-NA) released within 1 minute by 1 BAEE unit of plasma kallikrein” value [1] was 71.0 nm and the “Quantity of p-nitroaniline … of human plasmin” value [2] was 73.8 nm.
For `N=C(N)NCCC[C@H](NC(=O)[C@@H](NC(=O)[C@@H]1CCCN1C(=O)c1ccccc1)c1ccccc1)C(=O)Nc1ccc([N+](=O)[O-])cc1` [Substrate XVI, N^α-Bz-Pro-Ph.Gly-Arg-pNA.HCl] (Bz-Pro-[Phg]-Arg-pNA), the “Quantity of p-nitroaniline (pNA), β-naphthylamine (2-NA) or 4-methoxy-β-naphthylamine (4-MeO-2-NA) released within 1 minute by 1 BAEE unit of plasma kallikrein” value [1] was 9.1 nm and the “Quantity of p-nitroaniline … of human plasmin” value [2] was 16.2 nm.
In the case of `N=C(N)NCCC[C@H](NC(=O)[C@H](Cc1ccccc1)NC(=O)[C@@H]1CCCN1C(=O)c1ccccc1)C(=O)Nc1ccc2ccccc2c1` [Substrate XVII, N^α-Bz-Pro-Phe-Arg-2-NA^. HCl] (Bz-Pro-Phe-Arg-βNA), the “Quantity of p-nitroaniline (pNA), β-naphthylamine (2-NA) or 4-methoxy-β-naphthylamine (4-MeO-2-NA) released within 1 minute by 1 BAEE unit of plasma kallikrein” value [1] is reported as 44.1 nm and the “Quantity of p-nitroaniline … of human plasmin” value [2] is reported as 95.4 nm.
In the case of `COc1cc(NC(=O)[C@H](CCCNC(=N)N)NC(=O)[C@H](Cc2ccccc2)NC(=O)[C@@H]2CCCN2C(=O)c2ccccc2)cc2ccccc12` [Substrate XVIII, N^α-Bz-Pro-Phe-Arg-4-MeO-2-NA^. HCl], the “Quantity of p-nitroaniline (pNA), β-naphthylamine (2-NA) or 4-methoxy-β-naphthylamine (4-MeO-2-NA) released within 1 minute by 1 BAEE unit of plasma kallikrein” value [1] is reported as 39.8 nm and the “Quantity of p-nitroaniline … of human plasmin” value [2] is reported as 79.7 nm.
In the case of `N=C(N)NCCC[C@H](NC(=O)OCc1ccccc1)C(=O)Nc1ccc([N+](=O)[O-])cc1` [XIIIa, Cbo-Arg-pNA.HCl], the splitting by trypsin [3] is reported as “split by trypsin with liberation of pNA”.
“N^α -4-Aminomethyl-cyclohexylcarbonyl-Pro-Phe-Arg-pNA.2HCl [Substrate IX]” was tested, and the “Quantity of p-nitroaniline (pNA), β-naphthylamine (2-NA) or 4-methoxy-β-naphthylamine (4-MeO-2-NA) released within 1 minute by 1 BAEE unit of plasma kallikrein” value [1] was 65.1 nm and the “Quantity of p-nitroaniline … of human plasmin” value [2] was 600.0 nm.
With “N^α -Caproyl-Pro-Phe-Arg-pNA.HCl [Substrate IV]” the “Quantity of p-nitroaniline (pNA), β-naphthylamine (2-NA) or 4-methoxy-β-naphthylamine (4-MeO-2-NA) released within 1 minute by 1 BAEE unit of plasma kallikrein” value [1] was 108.3 nm and the “Quantity of p-nitroaniline … of human plasmin” value [2] was 100.0 nm.
